Results reported in patent publication US20250257034A1, “INDOLE DERIVATIVES AS SEROTONERGIC AGENTS USEFUL FOR THE TREATMENT OF DISORDERS RELATED THERETO” (priority 2023, published 2025).
Several values for one entry are separate records, joined by “and”; a condition that tells them apart may be missing. Equal entries are not always repeated.

Columns and labels:
Assay type in all cases: in vitro ADME
[1] = Human liver microsomes stability; conditions: for CLint (μL/min/mg protein) / t1/2: 2 μM compound
Method: (§1) The objective of this study was to estimate in vitro metabolic stability of exemplary compounds of Formula (I) or a pharmaceutically acceptable salt, solvate, and/or prodrug thereof in pooled human, male rat, and male mouse liver microsomes. The concentrations of compounds in reaction systems were evaluated by LC-MS/MS for estimating the stability in pooled human, male rat, and male mouse liver microsomes. The in vitro intrinsic clearances of test compounds were determined as well.
(§2) A master solution in the “Incubation Plate” containing phosphate buffer, ultra-pure H2O, MgCl2 solution and liver microsomes was made according to Table 33. The mixture was pre-warmed at 37° C. water bath for 5 minutes.
(§3) 40 μL of 10 mM nicotinamide adenine dinucleotide phosphate (NADPH) solution was added to each well. The final concentration of NADPH was 1 mM. The negative control samples were prepared by replacing NADPH with 40 μL of ultra-pure H2O. Samples were prepared in duplicate. Negative controls were prepared in singlet.
(§4) The reaction was started with the addition of 4 μL of 200 μM exemplary test compounds of the disclosure or control compounds to each master solution to get the final concentration of 2 μM. This study was performed in duplicate.
(§5) Aliquots of 50 μL were taken from the reaction solution at 0, 15, 30, 45, and 60 minutes. The reaction solutions were stopped by the addition of 4 volumes of cold methanol with IS (100 nM alprazolam, 200 nM imipramine, 200 nM labet alol and 2 μM ketoprofen). Samples were centrifuged at 3,220 g for 40 minutes. Aliquot of 90 μL of the supernatant was mixed with 90 μL of ultra-pure H2O and then was used for LC-MS/MS analysis.
(§6) LC/MS analysis was performed for all samples from this study using a Shimadzu liquid chromatograph separation system equipped with degasser DGU-20A5R; solvent delivery unit LC-30AD; system controller SIL-30AC; column oven CTO-30A; CTC Analytics HTC PAL System. Mass spectrometric analysis was performed using a Triple Quad™ 5500 instrument.
(§7) All calculations were carried out using Microsoft Excel. Peak area ratios of test compound to internal standard (listed in the below table) were determined from extracted ion chromatograms.
(§8) All calculations were carried out using Microsoft Excel. Peak areas were determined from extracted ion chromatograms. The slope value, k, was determined by linear regression of the natural logarithm of the remaining percentage of the parent drug vs. incubation time curve.
(§9) The in vitro half-life (in vitro t1/2) was determined from the slope value:
(§10) Conversion of the in vitro t1/2(min) into the in vitro intrinsic clearance (in vitro CLint, in μL/min/mg proteins) was done using the following equation (mean of duplicate determinations): […]
(§11) A master solution in the “Incubation Plate” containing phosphate buffer, ultra-pure H2O, MgCl2 solution and liver microsomes was made according to Table 63. The mixture was pre-warmed at 37° C. water bath for 5 minutes.
(§12) 40 μL of 10 mM NADPH solution was added to each well. The final concentration of NADPH was 1 mM. The negative control samples were prepared by replacing NADPH with 40 μL of ultra-pure H2O. Samples were prepared in duplicate. Negative controls were prepared in singlet.
(§13) Conversion of the in vitro t1/2(min) into the in vitro intrinsic clearance (in vitro C Lt, in μL/min/mg proteins) was done using the following equation (mean of duplicate determinations): […]

[2] = Rat liver microsomes stability; conditions: for CLint (μL/min/mg protein) / t1/2 / half-life at 2 μM / microsomal CLint at 2 μM: 2 μM compound; for half-life at 2 μM / microsomal CLint at 2 μM: male, rat; for microsomal CLint at 2 μM: read-out: CLint (μL/min/mg protein)
Method: as §1, §2, §3, §4, §5, §6, §7, §8, §9, §10, §11, §12, §13

[3] = Mouse liver microsomes stability; conditions: for microsomal CLint at 2 μM: mouse, read-out: CLint (μL/min/mg protein)
Method: as §1, §2, §3, §4, §5, §6, §7, §8, §9, §10, §11, §12, §13

[4] = human liver microsomes, 0.5 mg/mL
[5] = human liver microsomes, With Cofactors, 0 min
[6] = human liver microsomes, With Cofactors, 30 min
[7] = human liver microsomes, With Cofactors, 60 min
[8] = human liver microsomes, Without Cofactors, 0 min
[9] = human liver microsomes, Without Cofactors, 30 min
[10] = human liver microsomes, Without Cofactors, 60 min
[11] = Rat liver microsomes, 0.5 mg/mL microsomes, 1 mM NADPH
[12] = Rat liver microsomes, 0.5 mg/mL microsomes, 1 mM NADPH, 37° C
[13] = rat liver microsomes, 0.5 mg/mL
[14] = rat liver microsomes, With Cofactors, 0 min
[15] = rat liver microsomes, With Cofactors, 30 min
[16] = rat liver microsomes, With Cofactors, 60 min
[17] = rat liver microsomes, Without Cofactors, 0 min
[18] = rat liver microsomes, Without Cofactors, 30 min
[19] = rat liver microsomes, Without Cofactors, 60 min
[20] = mouse liver microsomes, 2 μM compound, 0.5 mg/mL
[21] = mouse liver microsomes, With Cofactors, 0 min
[22] = mouse liver microsomes, With Cofactors, 30 min
[23] = mouse liver microsomes, With Cofactors, 60 min
[24] = mouse liver microsomes, Without Cofactors, 0 min
[25] = mouse liver microsomes, Without Cofactors, 30 min
[26] = mouse liver microsomes, Without Cofactors, 60 min
[27] = pooled liver microsomes, rat liver microsomes, 0.5 mg/mL

## COc1ccc2[nH]cc(CCN(C)C)c2c1 [Compound 5-MeO-DMT]
[1]; Human liver microsomes
  Predicted hepatic CL: 18.09 mL/min/kg
  Scaled-up CLint: 143.22 mL/min/kg
[1]; Human liver microsomes, 0.5 mg/mL microsomes, 1 mM NADPH
  CLint (μL/min/mg protein): 114.19 μL/min/mg protein
[1]; Human liver microsomes, 0.5 mg/mL microsomes, 1 mM NADPH, 37° C
  t1/2: 12.14 min
[1]; human liver microsomes
  Predicted hepatic CL: 18.09 mL/min/kg
  Scaled-up CLint: 143.22 mL/min/kg
[1]; [4]
  CLint (μL/min/mg protein): 114.19 μL/min/mg protein
  t1/2: 12.14 min
[1]; [5]
  Remaining Percentage (%): 100.00%
[1]; [6]
  Remaining Percentage (%): 19.24%
[1]; [7]
  Remaining Percentage (%): 3.25%
[1]; [8]
  Remaining Percentage (%): 100.00%
[1]; [9]
  Remaining Percentage (%): 18.58%
[1]; [10]
  Remaining Percentage (%): 3.00%
[2]; Rat liver microsomes
  Predicted hepatic CL: 49.02 mL/min/kg
  Scaled-up CLint: 437.56 mL/min/kg
[2]; [11]
  CLint (μL/min/mg protein): 244.17 μL/min/mg protein
[2]; [12]
  t1/2: 5.68 min
[2]; rat liver microsomes
  Predicted hepatic CL: 49.02 mL/min/kg
  Scaled-up CLint: 437.56 mL/min/kg
[2]; [13]
  CLint (μL/min/mg protein): 244.17 μL/min/mg protein
  t1/2: 5.68 min
[2]; [14]
  Remaining Percentage (%): 100.00%
[2]; [15]
  Remaining Percentage (%): 2.57%
[2]; [16]
  Remaining Percentage (%): 0.36%
[2]; [17]
  Remaining Percentage (%): 100.00%
[2]; [18]
  Remaining Percentage (%): 49.55%
[2]; [19]
  Remaining Percentage (%): 23.82%
[3]; Mouse liver microsomes
  Predicted hepatic CL: 54.19 mL/min/kg
  Scaled-up CLint: 136.21 mL/min/kg
[3]; Mouse liver microsomes, 2 μM compound, 0.5 mg/mL microsomes, 1 mM NADPH
  CLint (μL/min/mg protein): 31.13 μL/min/mg protein
[3]; Mouse liver microsomes, 2 μM compound, 0.5 mg/mL microsomes, 1 mM NADPH, 37° C
  t1/2: 44.52 min
[3]; mouse liver microsomes
  Predicted hepatic CL: 54.19 mL/min/kg
  Scaled-up CLint: 136.21 mL/min/kg
[3]; [20]
  CLint (μL/min/mg protein): 31.13 μL/min/mg protein
  t1/2: 44.52 min
[3]; [21]
  Remaining Percentage (%): 100.00%
[3]; [22]
  Remaining Percentage (%): 61.84%
[3]; [23]
  Remaining Percentage (%): 39.30%
[3]; [24]
  Remaining Percentage (%): 100.00%
[3]; [25]
  Remaining Percentage (%): 104.76%
[3]; [26]
  Remaining Percentage (%): 95.24%

## O=C(O)Cc1ccccc1Nc1c(Cl)cccc1Cl [Diclofenac]
[1]; Human liver microsomes
  Predicted hepatic CL: 18.38 mL/min/kg and 18.35 mL/min/kg
[1]; human liver microsomes
  Predicted hepatic CL: 18.44 mL/min/kg and 18.35 mL/min/kg
[1]; [5]
  Remaining Percentage (%): 100.00%
[1]; [6]
  Remaining Percentage (%): 5.01%
[1]; [7]
  Remaining Percentage (%): 1.77%
[1]; [8]
  Remaining Percentage (%): 100.00%
[1]; [9]
  Remaining Percentage (%): 112.67%
[1]; [10]
  Remaining Percentage (%): 96.67%
[2]; Rat liver microsomes
  Predicted hepatic CL: 41.22 mL/min/kg and 41.25 mL/min/kg
[2]; [11]
  CLint (μL/min/mg protein): 91.05 μL/min/mg protein
[2]; [12]
  t1/2: 15.22 min
[2]; liver microsomes, Rat liver microsomes, 0.5 mg/mL microsomes, 1 mM NADPH, 37° C
  half-life at 2 μM: 15.3 min
[2]; liver microsomes, Rat liver microsomes, 0.5 mg/mL microsomes, 1 mM NADPH
  microsomal CLint at 2 μM: 90.8 µL/min/mg
[2]; [27]
  half-life at 2 μM: 15.1 min
  microsomal CLint at 2 μM: 91.9 µL/min/mg
[2]; rat liver microsomes
  Predicted hepatic CL: 41.34 mL/min/kg and 41.25 mL/min/kg
[2]; [13]
  CLint (μL/min/mg protein): 91.05 μL/min/mg protein
  t1/2: 15.22 min
[2]; [14]
  Remaining Percentage (%): 100.00%
[2]; [15]
  Remaining Percentage (%): 11.86%
[2]; [16]
  Remaining Percentage (%): 6.35%
[2]; [17]
  Remaining Percentage (%): 100.00%
[2]; [18]
  Remaining Percentage (%): 102.19%
[2]; [19]
  Remaining Percentage (%): 100.63%
[3]; Mouse liver microsomes
  Predicted hepatic CL: 54.78 mL/min/kg and 56.11 mL/min/kg
[3]; male, liver microsomes, Mouse liver microsomes, 2 μM compound, 0.5 mg/mL microsomes, 1 mM NADPH
  microsomal CLint at 2 μM: 32 µL/min/mg
[3]; male, pooled liver microsomes, mouse liver microsomes, 2 μM compound, 0.5 mg/mL
  microsomal CLint at 2 μM: 32 µL/min/mg
[3]; male, Mouse liver microsomes, 2 μM compound, 0.5 mg/mL microsomes, 1 mM NADPH, 37° C
  half-life at 2 μM: 40.7 min
[3]; mouse liver microsomes
  Predicted hepatic CL: 54.78 mL/min/kg and 57.42 mL/min/kg
  Scaled-up CLint: 158.60 mL/min/kg
[3]; [20]
  CLint (μL/min/mg protein): 36.25 μL/min/mg protein
  t1/2: 38.23 min
[3]; [21]
  Remaining Percentage (%): 100.00%
[3]; [22]
  Remaining Percentage (%): 45.55%
[3]; [23]
  Remaining Percentage (%): 33.71%
[3]; [24]
  Remaining Percentage (%): 100.00%
[3]; [25]
  Remaining Percentage (%): 89.49%
[3]; [26]
  Remaining Percentage (%): 96.59%
